Assay results taken from patent EP0727211A1, “Use of src SH2 specific compounds to treat a bone resorption disease” (SMITHKLINE BEECHAM CORPORATION, priority 1995, dated 1996).
pIC50, pKi: −log10 of the molar value.

Experiments:
human SH-PTP2 SH2 domain = target: T1, human SH-PTP2 SH2 domain (Homo sapiens, UniProt Q06124); assay: SH2 domain / pY peptide binding assay (ELISA-based, 96 well plate), SH-PTP2 SH2; settings: for pKi: Ki calculated from IC50 by the expanded equation, Table II; for pIC50: cloned human SH2 domain fusion protein, 0.1 uM biotinylated pY peptide, Table I
T1 construct: SH2 domain of human SH-PTP2 (amino acids 1-106); made in house; host or cells: E. coli (pGEX-2T)
T1 sequence (Q06124 1-106): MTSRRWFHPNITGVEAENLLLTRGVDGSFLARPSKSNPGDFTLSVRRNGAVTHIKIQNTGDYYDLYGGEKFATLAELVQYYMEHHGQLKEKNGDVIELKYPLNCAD
Description: (§1) The inhibitory activity of compounds at the different human SH2 domains was determined in vitro using SH2 domains expressed as fusion proteins in E. coli. The SH2 domains used herein were the human forms of the src SH2 domain, Grb2 SH2 domain, lck SH2 domain, fyn SH2 domain, SH-PTP2 SH2 domain, p85 SH2 domain and hcp SH2 domain.
(§2) Fusion proteins having the structure GST-X-SH2 were prepared as described in the GST gene fusion kit system available from Pharmacia (New Jersey). GST is the tagging sequence glutathione s-transferase epitope (SEQ ID NO: 8) for fyn, Grb2 and SH-PTP2 and is the tagging sequence glutathione s-transferase epitope (SEQ ID NO: 9) for p85. SH2 refers to the SH2 domains of fyn, Grb2, p85 and SH-PTP2 which were expressed and purified using glutathione Sepharose 4B (Pharmacia) according to "Current Protocols in Molecular Biology", ed. FM Ausubel et al., pub. John Wiley and Sons, Inc., (1995), p 16.7.1. X is an appropriate linker, preferably of 6 to 21 base pairs, used to keep the SH2 construct in frame and complement cloning. As such, the sequence of X is not critical. One skilled in the art can readily construct the appropriate linker. The DNA sequence encoding each GST-X-SH2 fusion protein was designed such that the indicated restriction sites (BamH1 and EcoRI) flank the SH2 region. The vector used in the instant experiments was the E. coli expression vector pGEX-2T (Pharmacia) for fyn, Grb2 and SH-PTP2, and pGEX-3X (Pharmacia) for p85. Each of these vectors result in SH2 constructs having additional C-terminal amino acids as described below.
Human SH-PTP2 SH2 domain: The sequence encoding the SH2 domain of human SH-PTP2 (amino acids 1-106))(Bastien, L. et al., Biochem. Biophys. Res. Commun. 196, 124-133 (1993)) was cloned into the BamHI and EcoRI sites of the expression vector pGEX-2T. The SH2 domain including the additional C-terminal amino acids glutamine-phenylalanine-isoleucine-valine-threonine-aspartate (SEQ ID NO: 12) was cloned by PCR techniques known to those skilled in the art to yield the expressed fusion protein GST-X-SH-PTP2.
(§3) The binding assays for the SH2 domains and pY peptides were performed in an ELISA-based 96 well plate assay. In Millipore 96 well filter plates, hydrophilic Durapore® (pore size 0.65um Cat. No. MADVN6550), was added 2 ul (50% suspension) of Protein-G Sepharose (available from Pharmacia of N.J. Cat. No. 17-0618-01) and either 2 ul of 2 mg/ml of MAB178. (for gp120/SH2 domain fusion proteins src, lck and hcp) or 0.25 ul of anti-GST polyclonal antisera (available from Pharmacia of N.J.) (for GST/SH2 domain fusion proteins fyn, Grb2, p85 and SH-PTP2). 10 pmol of the subject SH2 domain fusion protein were added to their respective wells. The volume was brought to 100 ul with TBS-T (tris buffered saline plus 0.05% tween-20), incubated and shaken at room trmperature for 1 hr. then washed 1x with TBS-T (4°C). 90 ul of TBS-T were then added to each well. Specific pY biotinylated peptides were diluted to a concentration of 1.0 uM in TBS-T (these peptides can be obtained from Bachem Bioscience of Pennsylvania, Genosys Biotechnologies of Texas and California Peptide Research of California). 10 ul was aliquoted per well to yield a final concentration of 0.1 uM (approx, the Kd for each SH2 domain/peptide pair) and a final volume of 100 ul. The assay plates were incubated until equilibrium binding was attained (3 hr at 4°C with shaking). The assay plates were washed 2 X per well TBS-T (4°C), then 100 ul of SABC (Strepavidin biotinylated horseradish peroxidase complex, available from the Zymed corporation of California cat. no. 93-0043, 1 drop reagent A (streptavidin) and 1 drop of reagent B (AH-biotin conjugated-horseradish peroxidase) per 10 ml of TBS-T, incubated at 37°C for 30 minutes, then cooled to 4°C) was added per well, then incubated at 4°C for 30-60 minutes. The plates were then washed 4 X with TBS-T (4°C) (250 ul/well)/wash). […]

human fyn SH2 domain = target: T2, human fyn SH2 domain (Homo sapiens, UniProt P06241); assay: SH2 domain / pY peptide binding assay (ELISA-based, 96 well plate), fyn SH2; settings: for pKi: Ki calculated from IC50 by the expanded equation, Table II; for pIC50: cloned human SH2 domain fusion protein, 0.1 uM biotinylated pY peptide, Table I
T2 construct: SH2 domain of human fyn (amino acids 143-252); made in house; host or cells: E. coli (pGEX-2T)
T2 sequence (P06241 143-252): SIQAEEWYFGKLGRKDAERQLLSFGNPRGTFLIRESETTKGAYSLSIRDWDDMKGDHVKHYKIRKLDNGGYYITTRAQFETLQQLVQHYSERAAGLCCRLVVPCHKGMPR
Description: as §1, §2
The sequence encoding the SH2 domain of human fyn (amino acids 143-252) (Yamamoto, T. et al. Proc. Natl. Acad. Sci. USA 83, 5459-5463 (1986)) was cloned into the BamHI and EcoRI sites of the expression vector pGEX-2T. The SH2 domain including the additional C-terminal amino acids leucine-threonine-asparagine-serine-serine (SEQ ID NO: 10) was cloned by PCR techniques known to those skilled in the art to yield the expressed fusion protein GST-X-fyn.
as §3

“4-acetamido-benzamido-trans-4-methyl-cyclohexyl-N-1-(amino-R-2-(methoxy methyl)-pyrrolidine) carboxamide [Compound 8]” gave a pKi (human SH-PTP2 SH2 domain) of under 3.00, a pIC50 (human SH-PTP2 SH2 domain) of under 3.52 and a pKi (human fyn SH2 domain) of under 3.00. It also gave a pIC50 (human fyn SH2 domain) of under 3.52.
`Cc1nnc(SCC2=C(C(=O)O)N3C(=O)[C@@H](NC(=O)C(N)c4ccc(C(=O)O)cc4)[C@H]3SC2)s1` (stereo partly drawn) [Compound 1, 7-[D,L-α-Amino-α-(4-carboxyphenyl)acetamido]-3-[2-(5-methyl-1,3,4-thiadiazolyl)thiomethyl]Δ^3-cephem-4-carboxylic Acid] was tested, and the pKi (human SH-PTP2 SH2 domain) was under 3.00, the pIC50 (human SH-PTP2 SH2 domain) was under 3.52 and the pKi (human fyn SH2 domain) was under 3.00. For the same compound, the pIC50 (human fyn SH2 domain) was under 3.52.
`N[C@@H](Cc1cc(Br)c(Oc2ccc(O)c(Cc3ccc(O)nn3)c2)c(Br)c1)C(=O)O` [Compound 2, L-3,5-Dibromo-3'-(6-oxo-3(1H)-pyridazinylmethyl)-thyronine] showed a pKi (human SH-PTP2 SH2 domain) of under 3.00, a pIC50 (human SH-PTP2 SH2 domain) of under 3.52 and a pKi (human fyn SH2 domain) of under 3.00. The pIC50 (human fyn SH2 domain) was under 3.52.
`Cc1nc2sc3c(c2c2[nH][nH]c(=O)c12)CCC1(C3)OCCO1` [Compound 3, 8,8-Ethylenedioxy-2,3,7,8,9,10-hexahydro-4-methyl-1H-benzo[b]thieno[2,3-b]pyrazolo[3,4-d]pyridin-3-one] gave a pKi (human SH-PTP2 SH2 domain) of under 3.00, a pIC50 (human SH-PTP2 SH2 domain) of under 3.52 and a pKi (human fyn SH2 domain) of under 3.00. For the same compound, the pIC50 (human fyn SH2 domain) was under 3.52.
In the case of `Cc1ccc(C(=O)c2ccc(C(=O)c3ccc(CC=O)cc3)cc2)cc1` [Compound 4, 4-[4-(4-Methylbenzoyl)benzoyl]phenylacetaldehyde], the pKi (human fyn SH2 domain) was under 3.00 and the pIC50 (human fyn SH2 domain) was under 3.52.
`Cc1nc2sc3c(c2c2c1c(=O)[nH]n2C)CCC1(C3)OCCO1` [Compound 5, 1,4-Dimethyl-8,8-ethylenedioxy-2,3,7,8,9,10-hexahydro-1H-benzo[b]thieno[2,3-b]pyrazolo[3,4-d]pyridin-3-one] showed a pKi (human SH-PTP2 SH2 domain) of under 3.00, a pIC50 (human SH-PTP2 SH2 domain) of under 3.52 and a pKi (human fyn SH2 domain) of under 3.00. The pIC50 (human fyn SH2 domain) was under 3.52.
`CCCCCCNC(=O)[C@H]1CC[C@H](CNC(=O)c2ccc([N+](=O)[O-])cc2)CC1` [Compound 7, 4-nitro-benzamido-trans-4-methyl-cyclohexyl-N-hexyl carboxamide] was tested, and the pKi (human SH-PTP2 SH2 domain) was under 3.00, the pIC50 (human SH-PTP2 SH2 domain) was under 3.52 and the pKi (human fyn SH2 domain) was under 3.00. It also gave a pIC50 (human fyn SH2 domain) of under 3.52.
In the case of `CCCNC(=O)[C@H]1CC[C@H](CNC(=O)/C=C/c2ccc(C=O)cc2)CC1` [Compound 9, 4-formyl-E-cinnamido-trans-4-methyl-cyclohexyl-N-(propyl) carboxamide], the pKi (human SH-PTP2 SH2 domain) was under 3.00, the pIC50 (human SH-PTP2 SH2 domain) was under 3.52 and the pKi (human fyn SH2 domain) was under 3.00. The pIC50 (human fyn SH2 domain) was under 3.52.
`Cc1nc2sc3c(c2c2[nH][nH]c(=O)c12)CCCC3` [Compound 10, 2,3,7,8,9,10-Hexahydro-4-methyl-1H-benzo[b]thieno[2,3-b]pyrazolo[3,4-d]pyridin-3-one] gave a pKi (human SH-PTP2 SH2 domain) of under 3.00, a pIC50 (human SH-PTP2 SH2 domain) of under 3.52 and a pKi (human fyn SH2 domain) of under 3.00. It also gave a pIC50 (human fyn SH2 domain) of under 3.52.
